# Results from patent publication US20250213593A1, “Use of Derivatives based on Sarsasapogenin Structure and Pharmaceutical Compositions thereof” (BEIJING PHYTOVENT PHARMACEUTICAL TECHNOLOGY CO., LTD., priority 2022, published 2025).
# Entries after “also recorded” stand apart in the source; their conditions may differ. Marks after values point to notes of the source that are not given here.
# Tests used:
# [1] = system: hippocampal neurons; assay: L-cysteine-induced neuronal excitotoxicity; format: cell-based, SD rats; conditions: for protective effects on L-Cystine (400 μM)-induced neuronal excitotoxicity: compound 1 μM, 24 h before inducer
# Method: Experimental and analytical method: before the experiment, a 24-well cell culture plate was pretreated with Poly-D-lysine and placed in a cell incubator at 37° C. and 5% CO2 overnight. SD rats, 18 days pregnant, were ordered, brains of fetal rats (E18-19) were dissected, and hippocampal neurons in the brains were subjected to primary culture in a neuronal medium using a 24-well plate, and then cultured by a serum-free medium. The hippocampal neurons were cultured in a cell incubator at 37° C., 5% CO2 for 19 days (DIV19), then added with a compound to be tested (a final concentration of 1 μM) and a positive control AP5 [(2R)-amino-5-phosphonopentanoic acid(phosphonatopentanoate)] (a final concentration of 100 μM), cultured for 24 h, and then added with L-Cystine (400 μM) and NaHCO3 (10 mM). After 18 h, Hoechst3342 (2.5 μg/ml) was added for cell staining. The cells were placed in the incubator and cultured for 15 min, and photographed using the high-content fluorescence microscope, wherein 6 random non-overlapping fields were photographed for each duplicate well, and the total number of neurons and the number of dead neurons were counted with software Image J. The obtained data was used to determine whether there was a difference between a drug treatment group and a control group.
# Compound treatment: 32 small molecule compounds in Embodiment 1 to Embodiment 19A were diluted with DMSO to a 1 mM mother solution; and 1 μL of mother solution was added to 1 ml of culture solution per well in a 24-well plate to a final concentration of 1 μM, wherein a positive control compound was […] of AP5 (100 mM mother solution), and a negative control was 1 μl of DMSO.
# [2] = system: mice with ulcerative colitis induced by 3.0% DSS; assay: DSS mouse enteritis model; format: in vivo
# Excerpt: 60 mice in good health were divided into 6 groups according to body weight, with 10 mice in each group: a normal control group, a model group, a positive drug group, and groups of different test products (Embodiment 13B, Embodiment 33, and Embodiment 34, at a dosage of 80 mpk each). In addition to the normal control group, the mice in other groups were administrated with a 3.0% DSS solution to drink freely, and consecutively modeled for 8 days. The normal control group was administrated with autoclaved filtered water to drink freely. The drug was administered on the day of modeling, and a test product was administered by oral gavage according to a designed dosage, once a day for 9 consecutive days. […] On the next day after the last administration, after deep anesthesia with CO2, cardiac blood and plasma were collected, and cryopreserved at −80° C. Subsequently, the abdominal cavity was dissected, the liver was removed and cryopreserved at −80° C. Finally, the entire colon tissue was removed, the colon length was measured, photographs were taken, and the colon content was washed with normal saline after dissection along the mesenteric side and weighed.
# [3] = system: rats with ulcerative colitis induced by TNBS; assay: TNBS rats enteritis model; format: in vivo, rat; conditions: 80 mpk oral gavage once a day, 7 days
# Method: All rats except the normal control group were fasted for solids (not liquids) for 24 h. After being anesthetized with isoflurane, the rats were transrectally infused with a TNBS ethanol solution (18 mg TNBS/mouse) at 0.5 mL/mouse through a latex hose, the length of the hose into the rectum was about 8 cm, an anesthesia state was continued after the hose was withdrawn, and the rats were kept in an inclined state for 15 min. The rats in the normal control group were not stimulated with rectal cannula. After the animals were awake, they were randomly divided into groups, which then began to be administrated with drugs (marked as D1). The blank group and the model group were administrated with the same amount of vehicle by oral gavage once a day for 7 consecutive days (D1-D7). The animal's status and feces (loose stools or bloody stools) were observed every day. The body weights were monitored. On the next day after the last administration (D8), the animals were deeply anesthetized with CO2, sacrificed and dissected. The entire colon tissues were harvested. The colon content was washed with normal saline after dissection along the mesenteric side. The body weights were measured and the colon lengths were measured. A ulcer surface was measured by Image J software. The general conditions of the colons were observed and photographed. Some of diseased tissues were fixed with formalin, and subjected to histopathological observation by HE staining. • Results: (1) the effects on general conditions of TNBS colitis mice were shown in FIG. 46a: the rats had loose stool on the next day of TNBS modeling; and the modeled mice had symptoms of reduced diet, tiredness, emaciation, erect hair, and dull hair. The feces of some rats were improved in the later stage of administration, but some rats still maintained loose stool until the end of the experiment, and some rats had obvious abdominal distension in the later stage of the experiment.
# [4] = system: transgenic neutrophil fluorescent zebrafishes; assay: Anti-inflammatory effect on LPS-induced inflammatory zebrafish; format: in vivo; conditions: 80 μM; for Number of neutrophils (mean ± SE): 3 h, n = 10, model control 18, normal control 3
# Method: LPS was used to treat normal 3 dpf transgenic neutrophil fluorescent zebrafishes in a yolk sac injection, and a zebrafish inflammation model was established.
# Transgenic neutrophil fluorescent zebrafishes (3 dpf), well developed and consistent in stage on 3 days after fertilization, were picked under a microscope and placed in a six-well plate, with 30 zebrafishes being randomly picked for each well at a capacity of 3 mL in each well. A zebrafish inflammation model was established by administrating LPS in a yolk sac injection. “Embodiment 5” and “Embodiment 6” were respectively dissolved with water, wherein the concentrations were 0.28 μM, 0.83 μM and 2.5 μM, respectively. The concentration of indomethacin was 80 μM. Meanwhile, a normal control group (i.e., zebrafishes were treated with fish-farming water) and a model control group were set, and incubated in a 28° C. incubator for 3 h. 10 zebrafishes were randomly selected from each group, and observed and photographed under a fluorescence microscope, and the photos were saved. Nikon NIS-Elements D 3.10 advanced image processing software was used for image analysis, the number (N) of inflammatory neutrophils in zebrafish was calculated, and the statistical processing results were expressed as mean±SE. The statistical analysis results of the number of inflammatory neutrophils in zebrafish were used to evaluate whether “Embodiment 5” and “Embodiment 6” had significant anti-inflammatory effects on LPS-induced inflammatory zebrafish, respectively. A formula for calculating the anti-inflammatory effects of “Embodiment 5” and “Embodiment 6” was as follows: […]
# [5] = system: human SHSY5Y neural tumor cells; assay: H2O2-induced oxidative damage of SHSY5Y cells (MTT); format: cell-based; conditions: 1 μM, pre-protected 24 h, 250 μM H2O2 24 h
# [6] = system: C57BL/6J mice, LPS-induced peripheral and central inflammation; assay: LPS-induced peripheral and central inflammation mouse model; format: in vivo; conditions: 30 mg/kg p.o. QD*3
# Method: Modeling method: LPS (2 mg/kg, i.p., QD) was injected on Day 1, Day 2 and Day 3 to induce peripheral and central inflammations of mice. An ND drug test group was subjected to administration pre-protection (ND 30 mg/kg, p.o., QD) 2 h before LPS injection. After the experiment, plasma and brain tissues of the mice were collected for inflammatory factors, peroxidation factors and other indicators.
# • Serum: after the mice were anesthetized with 1% sodium pentobarbital, the eyeballs were harvested, the blood was taken and placed in an EP tube, and then centrifuged at low temperature after standing at 4° C. for 1 h, and a supernatant was taken, and frozen quickly in liquid nitrogen. • Hippocampal tissues: the mice were anesthetized with 1% sodium pentobarbital and then subjected to cardiac perfusion with cold PBS, brains were harvested, and tissues were taken on ice and frozen quickly in an EP tube with liquid nitrogen.
# Cryopreserved plasma was taken, and an reactive oxygen detection kit, a hydrogen peroxide detection kit and a nitric oxide detection kit were used to detect various indicators. The specific operation processes were the same as the instruction of each kit.
# The cryopreserved hippocampal tissues were taken, added with a RIPA tissue lysate containing a protease inhibitor, fully homogenized and cleaved. A supernatant was taken after low-temperature centrifugation. The protein quantification was performed by a BCA protein quantification kit. Tissue samples were adjusted to a unified protein concentration. An reactive oxygen detection kit, a hydrogen peroxide detection kit and a nitric oxide detection kit were used to detect various indicators.
# Cryopreserved plasma was taken, and IL-1β, IL-6 and IL-10 kits were used to detect various indicators. The specific operation processes were the same as the instruction of each kit.
# A hippocampal tissue supernatant was taken, and IL-1β, IL-6 and IL-10 kits were used to detect various indicators. The specific operation processes were the same as the instruction of each kit.
# Experimental results were expressed as “mean±standard deviation”. One-way ANOVA was used to compare the data of each group to determine whether there was a statistical difference between the groups.
# [7] = 80 mpk oral gavage once a day, 9 days
structure (smiles),measurement,setting,value
C[C@H]1CC[C@@]2(OC1)O[C@H]1C[C@H]3[C@@H]4CC[C@@H]5C[C@H](NC(=O)CCN(C)C)CC[C@]5(C)[C@H]4CC[C@]3(C)[C@H]1[C@@H]2C [Embodiment 4B],protective effects on L-Cystine (400 μM)-induced neuronal excitotoxicity,[1],protective effects
"O=C(O)c1cc(/N=N/c2ccc(S(=O)(=O)Nc3ccccn3)cc2)ccc1O [SASP, reference compound]",colon atrophy,[2]; 720 mg/kg positive drug,could inhibit colon atrophy
same,general conditions of DSS colitis mice,[2]; 720 mg/kg positive drug,certain improvement effects
C[C@H]1CC[C@@]2(OC1)O[C@H]1C[C@H]3[C@@H]4CC[C@@H]5CC(NC(=O)CCN6CCN(C)CC6)CC[C@]5(C)[C@H]4CC[C@]3(C)[C@H]1[C@@H]2C (stereo partly shown) [Embodiment 1],protective effects on L-Cystine (400 μM)-induced neuronal excitotoxicity,[1],protective effects
C[C@H]1CC[C@@]2(OC1)O[C@H]1C[C@H]3[C@@H]4CC[C@@H]5CC(NC(=O)CC(=O)N6CCN(C(=O)CN(C)C)CC6)CC[C@]5(C)C4CC[C@]3(C)[C@H]1[C@@H]2C (stereo partly shown) [Embodiment 37],colon ulcer area,[3],could reduce
same,colon weight per unit length (colon weight/colon length),[3],could reduce
CC(C)N1CCC(N2CCN(C(=O)CC(=O)NC3CC[C@]4(C)C5CC[C@]6(C)[C@@H]7[C@H](C[C@H]6[C@@H]5CC[C@@H]4C3)O[C@]3(CC[C@H](C)CO3)[C@H]7C)CC2)CC1 (stereo partly shown) [Embodiment 34],colon length,[2]; [7],could increase the weights and lengths of the colons
same,colon weight,[2]; [7],could increase the weights and lengths of the colons
same,general conditions of DSS colitis mice,[2]; [7],certain improvement effects
C[C@H]1CC[C@@]2(OC1)O[C@H]1C[C@H]3[C@@H]4CC[C@@H]5CC(NC(=O)CC(=O)N6CCNCC6)CC[C@]5(C)[C@H]4CC[C@]3(C)[C@H]1[C@@H]2C (stereo partly shown) [Embodiment 10],protective effects on L-Cystine (400 μM)-induced neuronal excitotoxicity,[1],protective effects
"COc1ccc2c(c1)c(CC(=O)O)c(C)n2C(=O)c1ccc(Cl)cc1 [indomethacin, Indomethacin, reference compound]",Inflammation resolution (%) / anti-inflammatory effect,[4],67%
same,Number of neutrophils (mean ± SE),[4],6
same,Number of neutrophils (mean ± SE),[4]; listed as Indomethacin,6 ± 0.31
same,anti-inflammatory effect on inflammatory zebrafish (in words),[4]; P<0.001 vs model control,obvious anti-inflammatory effect
same,Inflammation resolution (%) / anti-inflammatory effect,[4]; listed as Indomethacin,67*** %
C[C@H]1CC[C@@]2(OC1)O[C@H]1C[C@@H]3[C@H](CC[C@H]4[C@H]3CC[C@@H]3CC(NC(=O)CC(=O)NCC5CCN(C)CC5)CC[C@@]34C)[C@H]1[C@@H]2C (stereo partly shown) [Embodiment 7],protection of H2O2-induced neural tumor cell damages,[5],significantly protected
"N[C@H](CCCP(=O)(O)O)C(=O)O [AP5, (2R)-amino-5-phosphonopentanoic acid(phosphonatopentanoate), reference compound]",protective effect on the neuronal excitotoxicity,[1]; AP5 100 μM,very significant protective effect
same,proportion of dead cells,"[1]; AP5 100 μM, L-Cystine 400 μM + NaHCO3 10 mM, without inducer 20.12%, DMSO 87.62%",27.58%
C[C@@H]1CC[C@@]2(OC1)OC1CC3C4CC[C@H]5C[C@@H](NC(=O)CCN(C)C)CC[C@]5(C)C4CC(=O)[C@]3(C)C1[C@@H]2C (stereo partly shown) [Embodiment 20A],IL-10 in hippocampus,[6],only affected
same,IL-10 in serum,[6],only affected
same,anti-inflammatory effect (in words),[6],obvious anti-inflammatory effect; also recorded: good anti-inflammatory effect
same,antioxidant effect (in words),[6],good antioxidant effect
same,H2O2 concentration in serum,[6]; vs LPS group,significantly improved
same,NO concentration in serum,[6]; vs LPS group,significantly improved
same,ROS level in serum,[6]; vs LPS group,significantly improved
CC(C)CN1CCN(C2CCN(C(=O)CC(=O)NC3CC[C@]4(C)C5CC[C@]6(C)[C@@H]7[C@H](C[C@H]6[C@@H]5CC[C@@H]4C3)O[C@]3(CC[C@H](C)CO3)[C@H]7C)CC2)CC1 (stereo partly shown) [Embodiment 33],colon length,[2]; [7],could increase the weights and lengths of the colons
same,colon weight,[2]; [7],could increase the weights and lengths of the colons
same,general conditions of DSS colitis mice,[2]; [7],certain improvement effects
C[C@H]1CC[C@@]2(OC1)O[C@H]1C[C@H]3[C@@H]4CC[C@@H]5CC(NC(=O)CC(=O)N6CCN(C7CCN(CCF)CC7)CC6)CC[C@]5(C)C4CC[C@]3(C)[C@H]1[C@@H]2C (stereo partly shown) [Embodiment 36],colon ulcer area,[3],could reduce
same,colon weight per unit length (colon weight/colon length),[3],could reduce
C[C@H]1CC[C@@]2(OC1)OC1CC3C4CC[C@@H]5C[C@@H](NC(=O)CC(=O)NCCO)CC[C@]5(C)C4CC[C@]3(C)C1[C@@H]2C (stereo partly shown) [Embodiment 14A],protection of H2O2-induced neural tumor cell damages,[5],significantly protected
